Test results reported in ChEMBL document CHEMBL3232860, “Evaluation of structural effects on 5-HT(2A) receptor antagonism by aporphines: identification of a new aporphine with 5-HT(2A) antagonist activity” (Bioorg Med Chem Lett, 2014).

Columns and labels:
[1] = target: 5-hydroxytryptamine receptor 2A (Homo sapiens) (UniProt P28223); assay: Antagonist activity at human 5-HT2A receptor assessed as inhibition of 5-HT-induced mobilization of internal calcium at 10 uM by FLIPR assay; format: functional
[2] = target: T1, Alpha-1A adrenergic receptor (Homo sapiens) (UniProt P35348); assay: Antagonist activity at alpha1A adrenergic receptor (unknown origin) assessed as inhibition of mobilization of internal calcium at 10 uM by FLIPR assay; format: functional
T1 sequence (whole entry): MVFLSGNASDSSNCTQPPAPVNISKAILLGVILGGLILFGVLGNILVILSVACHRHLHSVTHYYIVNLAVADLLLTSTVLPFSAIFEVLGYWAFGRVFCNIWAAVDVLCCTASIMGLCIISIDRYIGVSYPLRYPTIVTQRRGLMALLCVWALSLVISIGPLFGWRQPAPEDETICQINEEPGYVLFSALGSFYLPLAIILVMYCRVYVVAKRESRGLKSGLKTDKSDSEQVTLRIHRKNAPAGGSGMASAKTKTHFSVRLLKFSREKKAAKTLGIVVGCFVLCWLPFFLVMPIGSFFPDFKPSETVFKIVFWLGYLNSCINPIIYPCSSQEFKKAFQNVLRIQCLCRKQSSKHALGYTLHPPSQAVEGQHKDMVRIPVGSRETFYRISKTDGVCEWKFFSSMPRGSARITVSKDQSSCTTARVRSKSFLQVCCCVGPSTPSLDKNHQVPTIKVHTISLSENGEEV

Homo sapiens = organism: Homo sapiens; assay: Selectivity ratio of Ke for human 5-HT2A receptor to Ke for alpha1A adrenergic receptor (unknown origin)

Sequence of 5-hydroxytryptamine receptor 2A (Homo sapiens) (P28223 whole entry): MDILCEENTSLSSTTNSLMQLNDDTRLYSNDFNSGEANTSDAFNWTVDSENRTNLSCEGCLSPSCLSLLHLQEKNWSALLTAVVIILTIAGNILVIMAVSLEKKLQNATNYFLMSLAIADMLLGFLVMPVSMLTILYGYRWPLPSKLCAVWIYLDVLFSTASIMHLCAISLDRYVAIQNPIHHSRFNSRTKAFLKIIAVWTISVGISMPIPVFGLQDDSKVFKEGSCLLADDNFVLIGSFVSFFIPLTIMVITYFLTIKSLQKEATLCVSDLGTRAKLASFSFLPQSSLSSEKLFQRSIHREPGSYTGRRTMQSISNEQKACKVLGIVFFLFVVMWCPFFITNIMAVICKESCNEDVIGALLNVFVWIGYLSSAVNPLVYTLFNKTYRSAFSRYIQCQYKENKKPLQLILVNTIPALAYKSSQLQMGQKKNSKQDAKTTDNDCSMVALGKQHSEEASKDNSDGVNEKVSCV

Structure (SMILES) | Ke [1] [nM] | Ke [2] [nM] | Ratio Ke (Homo sapiens)
C=CCOc1c(OC)cc2c3c1-c1cc4c(cc1CC3OCC2)OCO4 (stereo unspecified) | > 3000 | > 3000 | –
COc1cc2c3c(c1OC)-c1cc4c(cc1C[C@@H]3N(C)CC2)OCO4 | 657 | 196 | 3.4
C=CCc1cc2c3c(c1OCC1CC1)-c1cc4c(cc1CC3N(C)CC2)OCO4 (stereo unspecified) | 963 | > 3000 | < 0.32
COc1cc2c3c(c1OC)-c1cc4c(cc1C[C@H]3N(C)CC2)OCO4 | 946 | 70 | 13.5
C=CCOc1ccc2c3c1-c1cc4c(cc1CC3N(C)CC2)OCO4 (stereo unspecified) | 47 | 744 | 0.06
CN1CCc2ccc(O)c3c2C1Cc1cc2c(cc1-3)OCO2 (stereo unspecified) | > 3000 | 2950 | –
COc1cc2c3c(c1OC)-c1cc4c(cc1CC3OCC2)OCO4 (stereo unspecified) | > 3000 | > 3000 | –
C=CCc1cc2c3c(c1O)-c1cc4c(cc1CC3N(C)CC2)OCO4 (stereo unspecified) | > 3000 | > 3000 | –
C=CCOc1c(CC=C)cc2c3c1-c1cc4c(cc1CC3N(C)CC2)OCO4 (stereo unspecified) | 1370 | > 3000 | < 0.45
C=CCc1cc2c3c(c1OC)-c1cc4c(cc1CC3N(C)CC2)OCO4 (stereo unspecified) | 485 | 566 | 0.85
